Results reported in US20210070748A1, “INHIBITORS OF BRUTONS TYROSINE KINASE” (Pharmacyclics LLC, priority 2015, published 2021).

Assays:
JAK3 = target: T1, JAK3 (Homo sapiens, UniProt P52333); experiment: Inhibition of a panel of kinases, in vitro HotSpot kinase assay: JAK3; assay type: biochemical; details: D-compounds panel data; 1 μM ATP; read-out: IC50 JAK3
T1 sequence (P52333 1-1124): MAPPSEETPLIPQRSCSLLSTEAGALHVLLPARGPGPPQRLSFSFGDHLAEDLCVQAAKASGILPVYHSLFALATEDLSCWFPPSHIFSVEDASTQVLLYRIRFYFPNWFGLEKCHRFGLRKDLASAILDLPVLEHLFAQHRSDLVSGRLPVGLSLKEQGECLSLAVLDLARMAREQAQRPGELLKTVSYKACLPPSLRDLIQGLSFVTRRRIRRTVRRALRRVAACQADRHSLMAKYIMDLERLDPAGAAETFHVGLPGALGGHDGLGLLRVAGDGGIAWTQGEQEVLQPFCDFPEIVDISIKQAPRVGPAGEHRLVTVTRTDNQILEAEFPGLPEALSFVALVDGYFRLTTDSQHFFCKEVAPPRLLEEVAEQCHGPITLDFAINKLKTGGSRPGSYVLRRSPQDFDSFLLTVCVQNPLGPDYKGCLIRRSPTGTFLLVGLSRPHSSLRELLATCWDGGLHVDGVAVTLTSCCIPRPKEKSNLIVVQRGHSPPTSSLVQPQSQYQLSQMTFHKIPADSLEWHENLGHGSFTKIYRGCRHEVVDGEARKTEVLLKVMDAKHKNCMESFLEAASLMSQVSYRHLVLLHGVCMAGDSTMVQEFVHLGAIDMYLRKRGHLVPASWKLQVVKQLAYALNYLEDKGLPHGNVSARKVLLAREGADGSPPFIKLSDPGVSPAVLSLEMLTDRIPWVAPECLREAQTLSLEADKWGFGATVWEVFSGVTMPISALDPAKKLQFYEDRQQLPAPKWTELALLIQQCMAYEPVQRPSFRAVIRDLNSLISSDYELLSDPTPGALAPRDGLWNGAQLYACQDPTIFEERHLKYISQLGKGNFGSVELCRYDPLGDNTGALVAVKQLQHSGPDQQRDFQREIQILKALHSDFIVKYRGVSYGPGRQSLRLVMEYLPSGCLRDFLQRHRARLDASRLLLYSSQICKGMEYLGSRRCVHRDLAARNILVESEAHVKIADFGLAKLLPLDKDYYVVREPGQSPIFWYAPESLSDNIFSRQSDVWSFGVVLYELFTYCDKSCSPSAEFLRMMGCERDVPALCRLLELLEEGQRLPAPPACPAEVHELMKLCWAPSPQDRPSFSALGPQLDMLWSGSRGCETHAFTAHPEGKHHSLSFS

LCK = LCK (Homo sapiens, UniProt P06239); experiment: Inhibition of a panel of kinases, in vitro HotSpot kinase assay: LCK; assay type: biochemical; details: D-compounds panel data; 1 μM ATP; read-out: IC50 LCK
Chain of LCK (P06239 whole entry): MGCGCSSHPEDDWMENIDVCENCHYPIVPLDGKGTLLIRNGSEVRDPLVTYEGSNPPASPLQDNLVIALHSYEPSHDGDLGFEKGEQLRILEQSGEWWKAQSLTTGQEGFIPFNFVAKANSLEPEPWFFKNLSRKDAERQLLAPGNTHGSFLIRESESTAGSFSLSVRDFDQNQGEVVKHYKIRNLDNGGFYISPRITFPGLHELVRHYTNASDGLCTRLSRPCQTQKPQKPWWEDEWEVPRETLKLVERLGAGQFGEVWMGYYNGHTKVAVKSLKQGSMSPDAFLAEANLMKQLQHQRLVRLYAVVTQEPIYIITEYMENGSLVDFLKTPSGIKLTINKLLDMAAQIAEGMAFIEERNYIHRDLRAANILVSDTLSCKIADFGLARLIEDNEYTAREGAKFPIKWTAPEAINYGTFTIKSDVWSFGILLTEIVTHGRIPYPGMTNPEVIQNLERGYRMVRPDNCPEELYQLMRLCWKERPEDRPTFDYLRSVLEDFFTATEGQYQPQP

| IC50 (JAK3) [nM] | IC50 (LCK) [nM] | SMILES |
| --- | --- | --- |
| 1000 to 10000 | 1000 to 10000 | C[C@@H]1[C@H](NC(=O)N(C)C)CCCN1c1cnc(C(N)=O)c(Nc2ccc(CN3CCN(C)CC3)cc2)c1 [Example D-120, 5-[(2R,3R)-3-[(dimethylcarbamoyl)amino]-2-methylpiperidin-1-yl]-3-({4-[(4-methylpiperazin-1-yl)methyl]phenyl}amino)pyridine-2-carboxamide] |
| 1000 to 10000 | 100 to 1000 | C[C@@H]1[C@H](NC(=O)N(C)C)CCCN1c1cnc(C(N)=O)c(Nc2ccc3cccnc3c2)n1 [Example D-121, 5-[(2R,3R)-3-[(dimethylcarbamoyl)amino]-2-methylpiperidin-1-yl]-3-[(quinolin-7-yl)amino]pyrazine-2-carboxamide] |
| 1000 to 10000 | 10 to 100 | C[C@@H]1[C@H](NC(=O)c2ccc(C3CC3)cc2F)CCCN1c1cnc(C(N)=O)c(Nc2cc(CN(C)C)ns2)n1 [Example D-122, 5-[(2R,3R)-3-(4-cyclopropyl-2-fluorobenzamido)-2-methylpiperidin-1-yl]-3-({3-[(dimethylamino)methyl]-1,2-thiazol-5-yl}amino)pyrazine-2-carboxamide] |
| > 10000 | 100 to 1000 | CC(C)n1cc(Nc2nc(N3CCC[C@@H](NC(=O)c4ccc(C5CC5)cc4F)[C@H]3C)cnc2C(N)=O)cn1 [Example D-123, 5-[(2R,3R)-3-(4-cyclopropyl-2-fluorobenzamido)-2-methylpiperidin-1-yl]-3-{[1-(propan-2-yl)-1H-pyrazol-4-yl]amino}pyrazine-2-carboxamide] |
| > 10000 | > 10000 | C[C@@H]1[C@H](NC(=O)c2ccc(C3CC3)cc2F)CCCN1c1cnc(C(N)=O)c(Nc2ccc3cccnc3c2)n1 [Example D-124, 5-[(2R,3R)-3-(4-cyclopropyl-2-fluorobenzamido)-2-methylpiperidin-1-yl]-3-[(quinolin-7-yl)amino]pyrazine-2-carboxamide] |
| 1000 to 10000 | 100 to 1000 | C[C@@H]1[C@H](NC(=O)c2ccc(C3CC3)cc2F)CCCN1c1cnc(C(N)=O)c(Nc2ccc(CN3CCN(C)CC3)cc2)c1 [Example D-125, 5-[(2R,3R)-3-(4-cyclopropyl-2-fluorobenzamido)-2-methylpiperidin-1-yl]-3-({4-[(4-methylpiperazin-1-yl)methyl]phenyl}amino)pyridine-2-carboxamide] |
| > 10000 | 100 to 1000 | C[C@@H]1[C@H](NC(=O)c2ccc(C3CC3)cc2F)CCCN1c1cnc(C(N)=O)c(Nc2ccc(N3CCN(C)CC3)cc2)c1 [Example D-126, 5-[(2R,3R)-3-(4-cyclopropyl-2-fluorobenzamido)-2-methylpiperidin-1-yl]-3-{[4-(4-methylpiperazin-1-yl)phenyl]amino}pyridine-2-carboxamide] |
| 1000 to 10000 | 100 to 1000 | C[C@@H]1[C@H](NC(=O)N(C)C)CCCN1c1cnc(C(N)=O)c(Nc2cnn(C)c2)n1 [Example D-128, 5-[(2R,3R)-3-[(dimethylcarbamoyl)amino]-2-methylpiperidin-1-yl]-3-[(1-methyl-1H-pyrazol-4-yl)amino]pyrazine-2-carboxamide] |
| > 10000 | > 10000 | C[C@@H]1[C@H](NC(=O)c2ccc(C3CC3)cc2F)CCCN1c1cnc(C(N)=O)c(Nc2ccn(C)n2)n1 [Example D-129, 5-[(2R,3R)-3-(4-cyclopropyl-2-fluorobenzamido)-2-methylpiperidin-1-yl]-3-[(1-methyl-1H-pyrazol-3-yl)amino]pyrazine-2-carboxamide] |

| SMILES | IC50 (JAK3) [nM] | IC50 (LCK) [nM] |
| --- | --- | --- |
| C[C@@H]1[C@H](NC(=O)N(C)C)CCCN1c1cnc(C(N)=O)c(Nc2ccc(N3CCN(C)CC3)cc2)c1 [Example D-127, 5-[(2R,3R)-3-[(dimethylcarbamoyl)amino]-2-methylpiperidin-1-yl]-3-{[4-(4-methylpiperazin-1-yl)phenyl]amino}pyridine-2-carboxamide] | > 10000 | 1000 to 10000 |
